The source of these data is paper PMC4186430, “Modeling of age-dependent amyloid accumulation and γ-secretase inhibition of soluble and insoluble Aβ in a transgenic mouse model of amyloid deposition” (Pharmacology Research & Perspectives, 2013).

The nature of this series: Population pharmacokinetic modeling of MRK-560 plasma and brain exposure in mice. It counts as in vivo, C57BL/6, Tg2576 and Tg2576 wild-type littermate mice. From the text: C57BL/6 female mice (Harlan Laboratories, Horst, The Netherlands), Tg2576 transgenic female mice (Taconics, Georgetown, NY), overexpressing human APP with the Swedish mutation (Hsiao et al. [1996]), and Tg2576 wild-type littermates were used in the experiments. The C57BL/6 and wild-type littermates were only used for pharmacokinetic PK sampling and analysis. The housing environment was humidity- and temperature-controlled with a constant 12-h light/dark cycle. The animals were kept in conventional housing (5–10 mice per cage) and had access to standard rodent chow and tap water ad libitum. The transgenic mice were aged at the local AstraZeneca (AZ) animal facilities. On the day of study, the mice were weighed. MRK-560 (synthesized in-house; AZ) or vehicle was administered by oral gavage. Three types of vehicles were used: (1) 1% MCC/NaCMC (Microcrystalline Cellulose/Sodiumcarboxymethyl Cellulose) +0.6% lipoid S100, (2) 20% HPβCD in 0.1 mol/L Meglumine, and (3) 40% HPβCD in 0.3 mol/L Meglumine. Observations of the animals’ health were made throughout all the experiments. Data from 23 MRK-560 studies were used in this analysis and details of all studies can be found in Table 1. For the AP analysis, data from vehicle and untreated Tg2576 mice from 48 additional (i.e., non-MRK-560) in-house studies were used. The additional dataset consisted of Aβ levels measured in Tg2576 mice of various ages, between 3.5 and 26 months at termination. Details of those data can be found in Appelkvist et al. ([2011]). In total, data from 71 preclinical studies were used.
Blood samples were collected by tail vein puncture in PK studies and occasionally in efficacy studies. At termination blood was withdrawn from anesthetized mice by heart puncture into prechilled microtainer Ethylenediaminetetraacetic acid tubes. Blood samples were immediately put on ice and centrifuged for 10 min at ∼3000g at +4°C within 20 min from sampling. Plasma was transferred to prechilled polypropylene tubes. The tubes were immediately frozen on dry ice and stored at −70°C until analysis.
Plasma samples and standards were precipitated with acetonitrile containing internal standard. After centrifugation, supernatant was transferred to a new 96-well plate, diluted with mobile phase, and injected on the LC/MS/MS system (Waters Corporation, Sollentuna, Sweden) (Bueters et al. [2011]). For the determination of the compound concentration in the brain, frozen mouse brains were weighed, and an ice-cold Ringer solution (two volumes per weight) was added. The brains were sonicated using a Multi-element probe SONICS VCX 500 (Newtown, CT). To 50 μL homogenized tissue 150 μL ice-cold acetonitrile containing an internal standard was added in a precipitation plate (96-well PP-plate; Waters, Milford, MA). After mixing and centrifugation (4°C, 4000 rpm, 20 min), supernatant was transferred to an analysis plate (PP-plate, Waters) and analyzed by LC/MS/MS (Borgegård et al. [2011]). As the brains were not perfused before exposure analysis, a volume of 1.3% of blood in the brain and the concentration of compound in plasma were used to calculate the brain concentration (Richard [1968]; Park and Sinko [2005]).
In the pharmacokinetic analysis, one- and two-compartmental first-order models were evaluated to fit the MRK-560 concentration–time profiles in plasma and brain. Separate absorption rate constants were estimated for oral and subcutaneous route of administration. A dose-dependent bioavailability was assessed and was modeled using the function shown in equation (1): [drawing 1] (1)
An instantaneous distribution of the unbound compound between plasma and brain was assumed. The brain exposure was modeled using equation (2): [drawing 2] (2) where CP was the plasma concentration, θ4 was the brain:plasma concentration ratio, and fu,pl and fu,br were the plasma and brain unbound fraction, respectively. […]

`O=S(=O)(NC1CCC(c2cc(F)ccc2F)(S(=O)(=O)c2ccc(Cl)cc2)CC1)C(F)(F)F` (stereo not drawn) [MRK-560, N-[cis-4-[(4-chlorophenyl)-sulfonyl]-4-(2,5-difluorophenyl)cyclohexyl]-1,1,1-trifluoromethanesulfonamide]: where the note is “estimated total brain:plasma ratio, constant over 0.01-15 μmol/L”, the “Brain:plasma ratio” value was 0.31. Also, the Kp (in general, tissue or fluid exposure divided by exposure in the circulation) (female, C57BL/6, Tg2576, Tg2576 wild-type littermates, mouse, brain, estimated total brain:plasma ratio, constant over 0.01-15 μmol/L) was 0.3. The clearance (commonly the volume of plasma or blood freed of the substance per unit of time) (female, C57BL/6, Tg2576, Tg2576 wild-type littermates, mouse, plasma, two-compartmental model) was 2 mL/min/kg. Further, the “differences in pharmacokinetics among C57BL/6, Tg2576 and Tg2576 wild-type littermates” value (mouse, in vivo) is “No differences”. Besides, where the note is “two-compartmental model”, the Q came out at 127 mL/min/kg, the V2 was found to be 0.28 L/kg and the V3 came out at 2.9 L/kg. In addition, the “KA (oral)” value (two-compartmental model, absorption rate constant, oral) came to 0.41 h⁻¹. For the same compound, where the note is “two-compartmental model, absorption rate constant, s.c.”, the “KA (s.c.)” value stood at 0.81 h⁻¹. In addition, the “plasma exposure with vehicles 2 and 3 compared to vehicle 1” value (vehicles 2, 3 = HPβCD/Meglumine, vehicle 1 = 1% MCC/NaCMC+0.6% lipoid S100) is “fourfold higher”.
